Measured values published in patent publication US9186385B2 (priority 2009, dated 2015).

Assays:
[1] = test system: peritoneal macrophage phagocytosis; experiment: Peritoneal macrophage phagocytosis in mice (India ink clearance, cyclophosphamide); format: in vivo; settings: 0.03 g/kg gastric infusion 7 days; cyclophosphamide-treated mice
[2] = test system: antibody level of hemolysin; experiment: Circulating antibody level test on sheep red blood cells (cyclophosphamide immunodeficient mice); format: in vivo; settings: 0.03 g/kg gastric infusion 7 days; cyclophosphamide-treated mice; OD 540 nm
Experimental: The anti-inflammatory effects of the extract compositions AB and ABC were determined for a series of treatment groups through the circulating antibody level test on sheep red blood cells.
Mice weighing 20-25 g were used in this study. Each group comprised an equal number of male and female animals. Rearing temperature was 23±2° C. The mice were divided into nine groups with 10 rats each: (1) blank control, (2) model control, (3) AB high dosage (15 g/kg), (4) AB mid dosage (7.5 g/kg), (5) AB low dosage (3.75 g/kg), (6) ABC high dosage (13.0 g/kg), (7) ABC mid dosage (7.66 g/kg), (8) ABC low dosage (3.83 g/kg), and (9) levamisole (0.03 g/kg).
The treatments of placebo and extract compositions were administered to each of the mice by gastric infusion for a period of 7 days. On the 2nd, 4th, and 6th day, each mouse, with the exception of those in the blank control group, was injected intraperitoneally with 50 mg/10 ml/kg of cyclophosphamide. Mice in the blank control group were injected intraperitoneally with saline of the same volume. Three days following administration of the final treatment (on day 7), all mice were each immunized by intraperitoneal injections of 0.2 ml of sheep erythrocyte suspension (5% of sheep erythrocyte in saline). […] The absorbance for each supernatant sample was recorded as an index of serum hemolytic level. […]

[3] = test system: type 1 FM1 influenza virus; experiment: Inhibition of the FM1 influenza virus in mice (lung index); format: in vivo, NIH mice
[4] = test system: foot swelling induced by carrageenan; experiment: Rat foot swelling induced by carrageenan; format: in vivo, Rats; settings: 0.15 g/kg oral once a day, 4 days
Experimental: The anti-inflammatory effects of the extract compositions AB and ABC were determined for a series of treatment groups through measurement of the foot swelling of rat paws following the administration of carrageenan.
Rats weighing 200±20 g were used in this experiment. Each test group comprised the same number of male and female animals. Rearing temperature was 23±2° C. The rats were divided into eight groups with 10 rats each: (1) model control, (2) AB high dosage (15 g/kg), (3) AB mid dosage (7.5 g/kg), (4) AB low dosage (3.75 g/kg), (5) ABC high dosage (13.0 g/kg), (6) ABC mid dosage (7.66 g/kg), (7) ABC low dosage (3.83 g/kg), (8) sodium salicylate group (0.15 g/kg), […]. There was no blank control in this experiment as there is no swelling of an animal paws where carrageenan is not administered
The method for conducting this experiment followed the guidelines outlined in the Manual on Studies of New Medicines of TCM by the Drug Administration Ministry of Health P.R.C. The method outlined in the manual details the following steps:
1. Draw a clear transverse line situated on the upper and front angles of the left back paw of each rat with a ballpoint pen;
2. Measure the paw volume of each rat;
3. Subcutaneously inject each rat, except those in the blank control group, with a dose of carrageenan (0.05 ml/paw) into the metatarsus of the hindlimb;
4. Orally administer one of the treatments of the AB extract, ABC extract, or sodium salicylate as per the above-noted dosages once a day for a period of 4 days. Rats in the model control group and blank were injected with saline of the same volume;
5. On the morning of the 4th day, one hour following the last administration of the final treatment, subcutaneously inject carrageenan (0.05 ml/paw) into the metatarsus of hindlimb of each rat;
6. Measure the paw volume at each of 1 hour, 2 hours, 3 hours, and 4 hours following the second carrageenan administration; and
7. Calculate the paw swelling percentage for each rat.
The swelling percentage was calculated by the following formula: Swelling percentage=((swelling volumes of rat paw after inflammation−swelling volumes of rat paw before inflammation)/swelling volumes of rat paw before inflammation)×100%
The experimental data was analyzed using the t-test to determine statistically significant differences between the results of each of the groups. There was no swelling in the paws of rats in the blank control group. The anti-inflammatory effects of the AB and ABC herbal extract compositions and sodium salicylate were considered to be effective when P was less than 0.05.

[5] = test system: permeability of the intraperitoneal blood capillary; experiment: Anti-inflammatory effect: permeability of the intraperitoneal blood capillary (acetic acid, Evans blue); format: in vivo, NIH mice; settings: 0.15 g/kg intragastric once a day, 3 days; acetic acid i.p.; OD 570 nm
Experimental: The anti-inflammatory effects of the extract compositions AB and ABC were determined for a series of treatment groups through measurement of the permeability of the intraperitoneal blood capillary.
NIH mice, weighing 20±2 g, were used in this experiment. […] The rearing temperature was 23±2° C. The mice were randomly divided into nine groups with 10 mice in each group: (1) blank control, (2) model control, (3) AB high dosage (15 g/kg), (4) AB mid dosage (7.5 g/kg), (5) AB low dosage (3.75 g/kg), (6) ABC high dosage (13.0 g/kg), (7) ABC mid dosage (7.66 g/kg), (8) ABC low dosage (3.83 g/kg), and (9) sodium salicylate group (0.15 g/kg).
An acetic normal saline solution was prepared by dissolving about a 0.4% of glacial acetic acid in 50 ml of a normal saline solution.
A 2% Evans blue normal saline solution was prepared by dissolving 2 g of Evans blue in 100 ml of normal saline solution. […]
About twenty minutes following the receipt of the saline injections, each mouse was sacrificed by breaking its cervical vertebrae. […] The supernatant was then collected and the absorbance or optical density (OD) of the supernatant was measured at 570 nm using a spectrophotometer. The experimental data was analyzed. Data was assessed using the t-test to determine statistically significant differences between the results of each of the groups. […]

[6] = […], 0.07 g/kg intragastric once a day, 3 days, day 4

c1ccc([C@H]2CN3CCSC3=N2)cc1 [Levamisole, levamisole]
Phagocytic coefficient (K) [1]: 0.046 ± 0.007 | Phagocytic coefficient index (α) [1]: 6.76 ± 0.43 | OD value of hemolysin [2]: 0.75 ± 0.006

NC(=O)c1ncn([C@@H]2O[C@H](CO)[C@@H](O)[C@H]2O)n1 [Ribavirin]
Lung Index [3, 6]: 1.19 ± 0.30 g/g | Weight [3, 6]: 14.94 ± 1.64 g | The rate of inhibition of lung index ([3]; mouse, in vivo): 32.38%

O=C([O-])c1ccccc1O.[Na+] [Sodium salicylate, sodium salicylate]
Paw swelling ([4]; 1 h after carrageenan): 0.490 ± 0.202 mL | Paw swelling ([4]; 2 h after carrageenan): 0.405 ± 0.195 mL | Paw swelling ([4]; 3 h after carrageenan): 0.265 ± 0.153 mL | Paw swelling ([4]; 4 h after carrageenan): 0.170 ± 0.136 mL | OD value of haemolysin in serum [5]: 0.305 ± 0.060
